Results reported in article PMC9569954, “The Antidepressant-like Activity, Effects on Recognition Memory Deficits, Bioavailability, and Safety after Chronic Administration of New Dual-Acting Small Compounds Targeting Neuropsychiatric Symptoms in Dementia” (International Journal of Molecular Sciences, 2022).
Where two headings read alike, the source gives them in different places.

Experiments:
[1] = Ferric-reducing antioxidant power (FRAP) of serum; format: in vivo, rats; details: rat, 1 mg/kg/day i.p., 21 days
Protocol: The assay was performed according to Benzie and Strain [46] with some modifications. The FRAP working solution was prepared before the start of the analysis, namely, 0.3 mol acetate buffer (pH 3.6), 0.01 mol TPTZ (2,4,6-tripyridyl-s-triazine; Sigma-Aldrich) in 0.04 mol HCl (POCh, Gliwice, Poland), and 0.02 M FeCl3×6H2O in water (iron (III) chloride hexahydrate; Chempur, Piekary Śląskie, Poland) were mixed in a volumetric ratio of 10:1:1 and protected from light.
Next, 20 µL of the plasma sample tested, brain homogenate, or FeSO4×7H2O solution was mixed with 180 µL of the FRAP working solution. The mixtures obtained were incubated at 37 °C for 30 min and their absorbance was measured at 593 nm. FeSO4×7H2O (100–1000 µM/L) was used for a calibration curve. Deionized water with FRAP solution was used as a blank.

[2] = Pharmacokinetics and brain uptake after i.v. and i.g. administration; format: in vivo, male Wistar rats; details: rat; for half-life / Cmax / MRT / AUC(0-t) / C0 / clearance / bioavailability / Tmax / Kp / Vd: male, Wistar; for half-life: in vivo, elimination from body, route not stated; for bioavailability: i.g. 2 mg/kg vs i.v. 0.5 mg/kg, read-out: F (absolute bioavailability); for Kp: brain/plasma, read-out: Brain/Plasma ratio; for Vd: read-out: Vss
Excerpt: The compounds investigated, namely, PQA-AZ4 and PQA-AZ6 (UPLC/MS purity > 95%), were synthesized at the Department of Medicinal Chemistry, Jagiellonian University Medical College (synthesis described in [10]); PQ-10, (6,7-dimethoxy-4-[(3R)-3-(2-quinoxalinyloxy)-1-pyrrolidinyl]-quinazoline, was obtained from Sigma-Aldrich (St. Louis, MO, USA). For the studies, the compounds were suspended in 1% aqueous solution of Tween 80, while (+)-MK-801 (hydrogen maleate, Sigma-Aldrich, St. Louis, MO, USA) was dissolved in distilled water. In the behavioral studies, PQA-AZ4, PQA-AZ6, and PQ-10 were injected intraperitoneally (i.p.) once a day (between 9:00 AM and 10:00 AM) for 21 consecutive days at the minimum active doses selected previously, based on acute treatment and assessment in behavioral tests at a volume of 2 mL/kg body weight. The control groups received 1% aqueous solution of Tween 80 (Sigma-Aldrich, St. Louis, MO, USA) in the same schedule. For the pharmacokinetic study, PQA-AZ4 and PQA-AZ6 dissolved in 20% captizol (Ligand, San Diego, CA, USA) were administered intravenously (i.v.) and intragastrically (i.g.) at a dose of 0.5 and 2 mg/kg, respectively, while ketamine (50 mg/kg, (hydrochloride, Biowet Puławy, Puławy, Poland)) and xylazine (8 mg/kg, hydrochloride, Biowet Puławy, Poland)) were injected i.p.
HPLC grade methanol, acetonitrile and reagent grade formic acid, hydrochloric acid, potassium dihydrogen phosphate, orthophosphoric acid, and sodium chloride were purchased from Merck (Darmstadt, Germany). Tissues (control blood and brain) were obtained from adult male Wistar rats anesthetized by i.p. injection of 50 mg/kg ketamine plus 8 mg/kg xylazine, and blood samples were collected in heparinized tubes from the heart. Blood samples were collected at 0 (predose), 15, 60, 240, and 1440 min after compound administration. The plasma was separated by centrifugation (1000× g, 10 min). Plasma and brain were stored at −80 °C pending analysis. The LC/ESI-MS/MS experiments were performed on a UPLC ACQUITY H-Class PLUS/Xevo TQD (Waters Corporation, Milford, MA, USA) triple-quadrupole mass spectrometer equipped with an electrospray (ESI) ionization interface. Data acquisition and processing were accomplished using MassLynx data collection and integration software. For the chromatographic and mass spectrometric conditions, and sample pretreatment, please see the Supplementary Materials.
Pharmacokinetic parameters were calculated by a noncompartmental approach from the average concentration values, using Phoenix WinNonlin software (Certara, Princeton, NJ 08540 USA). The first-order elimination rate constant (λz) was calculated by linear regression of log concentration versus time. The area under the mean plasma and brain concentration versus time curve (AUC0→t) was calculated from zero to the last concentration point using the linear trapezoidal rule:(1) AUC0→t=∑i=1nCi+Ci+1/2·(ti+1−ti) where Ci is the concentration of the compound.
The area under the first-moment curve (AUMC0→t) was estimated by calculation of the total area under the first-moment curve:(2) AUMC0→t=∑i=1n((ti·Ci+ti+1·Ci+1)/2)·(ti+1−ti) where ti is the […].
Mean residence time (MRT) was calculated as:(3) MRT=AUMC0→t/AUC0→t
Systemic clearance (Cl) was calculated as:(4) Cl=Div/AUC0→t
The volume of distribution at steady state (Vss) was calculated as:(5) Vss=Div⋅AUMC0→t/(AUC0→t )^2
The absolute bioavailability (F) of PQA-AZ4 and PQA-AZ6 after i.g. administration was calculated as:(6) F(%)=AUCi.g./AUCi.v.⋅Di.v./Di.g.⋅100 where Di.v. and Di.g. are i.v. and i.g. doses of the studied molecules, respectively.
1. Methods in pharmacokinetic studies
Instrumentation and operating conditions
The LC/ESI-MS/MS experiments were performed on a UPLC ACQUITY H-Class PLUS/Xevo
TQD (Waters Corporation, USA) triple-quadrupole mass spectrometer equipped with an electrospray
(ESI) ionization interface. Data acquisition and processing were accomplished using MassLynx data […]

5-HT1AR = target: 5-HT1AR; parameters: method as in PMID 35248836; details: read-out: Affinity 5-HT1AR Ki; cited from earlier work
[3] = brain, iv, 0.5 mg/kg, i.v. 0.5 mg/kg
[4] = brain, po, 2 mg/kg, i.g. 2 mg/kg
[5] = plasma, iv, 0.5 mg/kg, i.v. 0.5 mg/kg, plasma
[6] = plasma, po, 2 mg/kg, i.g. 2 mg/kg

SMILES	total antioxidant activity of serum (Fe2+ formed, FRAP) vs control [1]	half-life [2]	Cmax ([2]; iv, i.v. 0.5 mg/kg, brain)	MRT ([2]; iv, i.v. 0.5 mg/kg, brain)	AUC(0-t) ([2]; iv, i.v. 0.5 mg/kg, plasma)	C0 ([2]; iv, i.v. 0.5 mg/kg, plasma)	MRT ([2]; iv, i.v. 0.5 mg/kg, plasma)	clearance ([2]; iv, i.v. 0.5 mg/kg, plasma)	bioavailability ([2]; plasma, oral)	Cmax ([2]; po, i.g. 2 mg/kg, brain)	MRT ([2]; po, i.g. 2 mg/kg, brain)	AUC(0-t) ([2]; po, i.g. 2 mg/kg, plasma)	Cmax ([2]; po, i.g. 2 mg/kg, plasma)	MRT ([2]; po, i.g. 2 mg/kg, plasma)	Tmax [2, 3]	Tmax [2, 4]	Kp ([2]; iv, 0.5 mg/kg, i.v. 0.5 mg/kg)	Kp ([2]; po, 2 mg/kg, i.g. 2 mg/kg)	Vd [2, 5]	Tmax [2, 6]	also measured
COc1cccc(N2CCN(CC3CCN(c4ncnc5cc(OC)c(OC)cc45)C3)CC2)c1 (stereo not drawn) [PQA-AZ4, 6,7-Dimethoxy-4-(3-((4-(3-methoxyphenyl)piperazin-1-yl)methyl)pyrrolidin-1-yl)quinazoline]	comparable	~1 h	149 ng/g	3.1 h	714 ng·h/mL	431 ng/mL	0.958 h	10.8 mL/min/kg	8.29%	71.4 ng/g	3.58 h	118 ng·h/mL	46.7 ng/mL	1.38 h	0.25 h	1 h	0.9	5.7	0.8 L/kg	≤ 1 h	bioavailability ([2]; plasma, po): 8.3%; Brain/Plasma ratio ([2]; i.g. 2 mg/kg): 5.68; AUC0→t ([2]; i.g. 2 mg/kg, brain): 40,314 ng·min/g; t0.5 ([2]; i.g. 2 mg/kg, brain): 214 min; t0.5 ([2]; i.g. 2 mg/kg, plasma): 92 min; AUC0→t ([2]; i.v. 0.5 mg/kg, brain): 40,806 ng·min/g; t0.5 ([2]; i.v. 0.5 mg/kg, brain): 220 min; t0.5 ([2]; i.v. 0.5 mg/kg, plasma): 67.3 min; Ki (5-HT1AR): 18 nM
COc1cc2ncnc(N3CCC(CN4CCN(c5ccc(Cl)cc5)CC4)C3)c2cc1OC (stereo not drawn) [PQA-AZ6, 4-(3-((4-(4-Chlorophenyl)piperazin-1-yl)methyl)pyrrolidin-1-yl)-6,7-dimethoxyquinazoline]	comparable	~1 h	113 ng/g	7.4 h	93.6 ng·h/mL	102 ng/mL	0.742 h	85.2 mL/min/kg	38.4%	342 ng/g	12 h	144 ng·h/mL	99.5 ng/mL	1.11 h	0.25 h	0.25 h	8.6	5.3	~4.7 L/kg	0.25 h	Brain/Plasma ratio ([2]; i.g. 2 mg/kg): 5.29; AUC0→t ([2]; i.g. 2 mg/kg, brain): 45,623 ng·min/g; t0.5 ([2]; i.g. 2 mg/kg, brain): 1928 min; t0.5 ([2]; i.g. 2 mg/kg, plasma): 216.8 min; AUC0→t ([2]; i.v. 0.5 mg/kg, brain): 48,321 ng·min/g; t0.5 ([2]; i.v. 0.5 mg/kg, brain): 597 min; t0.5 ([2]; i.v. 0.5 mg/kg, plasma): 54.2 min; Ki (5-HT1AR): 346 nM
